Earlier results, collected in patent publication US20090023742A1, “THIAZOLONES FOR USE AS PI3 KINASE INHIBITORS” (priority 2006, published 2009).

System: Class I PI3-kinases
Conditions: each of the four Class I PI3-kinases; read-out: IC50 values against each of the various Class I PI3-kinases

wortmannin
IC50: 1 to 10 nM
